Row | melting point | SMILES
1 | 94 to 96.5 °C | CCCn1c(CCCc2ccc(OC(C)(C)C(=O)O)cc2)nn(Cc2ccc(C)cc2)c1=O
2 | 86.5 to 88.2 °C | CCCn1c(CCCc2ccc(OC)cc2)nn(Cc2ccc(C)cc2)c1=O [Example 118, 5-[3-(4-Methoxyphenyl)-propyl]-2-(4-methylbenzyl)-4-propyl-2,4-dihydro[1,2,4]tria-zol-3-one]

— patent publication US7304062B2, “Peroxisome proliferator activated receptor alpha agonists” (Eli Lilly and Company, priority 2000, dated 2007)
